Experimental data as given in patent publication US12613236B2, “Lung fibrosis model and methods of using the same” (DUKE UNIVERSITY, priority 2019, dated 2026).

What was measured:
[1] = tested on: TP53 signaling; experiment: Nutlin-3a treatment after bleomycin injury in Sftpc-CreER; R26R-tdTomato mice, AGER immunostaining; settings: uninjured (PBS) mice that received Nutlin-3a; 20 mg kg-1 d-1 intraperitoneal for ten days
[2] = molecular target: T1, Runx1 (Mus musculus, UniProt Q03347); experiment: Lipofibroblast culture with TGF-B induced myofibrogenesis, Runx1 pharmacologic inhibition; format: cell-based; settings: lipofibroblasts cultured in the presence of Ro 5-3335 and TGF-B for 48 hours
T1 construct: Lipofibroblasts were cultured in the presence of Ro 5-3335 and TGF-B for 48 hours; endogenous in cells; host or cells: primary lung lipofibroblasts (mouse, inferred) in culture
T1 sequence (Q03347 whole entry): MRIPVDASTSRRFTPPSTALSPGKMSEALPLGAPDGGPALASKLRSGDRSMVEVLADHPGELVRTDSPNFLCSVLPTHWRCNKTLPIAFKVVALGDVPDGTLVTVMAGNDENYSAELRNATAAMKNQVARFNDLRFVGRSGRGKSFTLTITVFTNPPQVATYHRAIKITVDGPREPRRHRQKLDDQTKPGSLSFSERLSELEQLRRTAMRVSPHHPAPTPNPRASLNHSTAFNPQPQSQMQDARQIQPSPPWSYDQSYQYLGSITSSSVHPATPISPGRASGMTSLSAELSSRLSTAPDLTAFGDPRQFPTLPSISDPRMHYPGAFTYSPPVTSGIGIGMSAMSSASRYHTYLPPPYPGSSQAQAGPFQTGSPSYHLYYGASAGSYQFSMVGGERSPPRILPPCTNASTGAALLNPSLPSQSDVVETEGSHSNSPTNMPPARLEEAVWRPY

SMILES | AGER+Sftpc-tdt+ cells in uninjured lungs [1] | PDGFRA expression and cell shape of lipofibroblasts [2] | aSMA expression and myofibrotic conversion [2]
COc1ccc(C2=N[C@@H](c3ccc(Cl)cc3)[C@@H](c3ccc(Cl)cc3)N2C(=O)N2CCNC(=O)C2)c(OC(C)C)c1 [Nutlin-3a] | no AGER+Sftpc-tdt+ cells | – | –
O=C1CN=C(c2ccc[nH]2)c2cc(Cl)ccc2N1 [Ro 5-3335] | – | maintained PDGFRA expression and their stellate shape | virtually no aSMA expression and myofibrotic conversion
